Measurements: patent US12486253B2, “Therapeutics for the degradation of mutant BRAF” (C4 THERAPEUTICS, INC., priority 2021, dated 2025)
Read-outs that look alike come from different tables or passages of the source.

Molecular target: BRAF V600E (Homo sapiens, UniProt P15056, V600E)
Assay: HiBiT cellular BRAF^V600E degradation assay
Format: cell-based
Conditions: for DC50: concentration at which 50% of total cellular BRAF^V600E is degraded; for Emax: read-out: HiBit 24 h Emax
[1] = A375.10 cells, 24 h, residual protein remaining in the cell

Chain of BRAF V600E (P15056 whole entry V600E): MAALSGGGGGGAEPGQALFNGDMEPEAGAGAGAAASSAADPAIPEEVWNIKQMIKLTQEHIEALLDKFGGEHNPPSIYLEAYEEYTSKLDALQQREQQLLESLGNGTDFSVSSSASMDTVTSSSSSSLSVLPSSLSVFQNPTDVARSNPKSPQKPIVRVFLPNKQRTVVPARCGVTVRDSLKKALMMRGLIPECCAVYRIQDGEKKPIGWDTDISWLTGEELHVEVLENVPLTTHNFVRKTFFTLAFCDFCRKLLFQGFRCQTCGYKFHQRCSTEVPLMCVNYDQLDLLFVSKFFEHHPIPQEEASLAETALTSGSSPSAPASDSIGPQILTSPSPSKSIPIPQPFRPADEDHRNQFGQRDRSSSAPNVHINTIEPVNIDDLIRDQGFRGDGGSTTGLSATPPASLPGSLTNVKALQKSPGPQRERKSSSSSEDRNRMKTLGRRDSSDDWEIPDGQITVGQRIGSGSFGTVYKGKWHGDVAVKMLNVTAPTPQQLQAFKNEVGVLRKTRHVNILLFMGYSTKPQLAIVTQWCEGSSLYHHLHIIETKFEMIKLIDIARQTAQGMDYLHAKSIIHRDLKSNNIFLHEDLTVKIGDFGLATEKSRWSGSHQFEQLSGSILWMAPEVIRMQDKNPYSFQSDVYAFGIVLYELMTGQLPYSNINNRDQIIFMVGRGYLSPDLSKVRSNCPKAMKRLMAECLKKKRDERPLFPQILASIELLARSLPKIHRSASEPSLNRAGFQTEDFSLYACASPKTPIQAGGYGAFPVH

Row | DC50 (A375.10 cells, 24 h) | Emax [1] | HiBit 24 h Emax [1] | SMILES | Emax
1 | 0.0157 µM | 12.6% |  | N#Cc1c(NS(=O)(=O)N2CCC2)ccc(F)c1Oc1ccc2ncn(-c3cnc(N4CCN(C(=O)CN5CCC(c6ccc(N[C@@H]7CCC(=O)NC7=O)cc6F)CC5)CC4)nc3)c(=O)c2c1 [Example 125, N-[2-cyano-3-[3-[2-[4-[2-[4-[4-[[(3R)-2,6-dioxopiperidin-3-yl]amino]-2-fluorophenyl]piperidin-1-yl]acetyl]piperazin-1-yl]pyrimidin-5-yl]-4-oxoquinazolin-6-yl]oxy-4-fluorophenyl]azetidine-1-sulfonamide] | 
2 | 0.0251 µM | 14.4% |  | CCN(C)S(=O)(=O)Nc1ccc(F)c(Oc2ccc3ncn([C@@H]4CCC5(CCN(C(=O)CN6CCC(c7ccc(N[C@@H]8CCC(=O)NC8=O)cc7F)CC6)CC5)C4)c(=O)c3c2)c1C#N [Example 44, 6-[2-cyano-3-[[ethyl(methyl)sulfamoyl]amino]-6-fluorophenoxy]-3-[(3R)-8-[2-[4-[4-[[(3R)-2,6-dioxopiperidin-3-yl]amino]-2-fluorophenyl]piperidin-1-yl]acetyl]-8-azaspiro[4.5]decan-3-yl]-4-oxoquinazoline] | 
3 | 0.0237 µM | 9.95% |  | CCN(C)S(=O)(=O)Nc1ccc(F)c(Oc2ccc3ncn([C@H]4COC5(CCN(C(=O)CN6CCC(c7ccc(N[C@H]8CCC(=O)NC8=O)cc7F)CC6)CC5)C4)c(=O)c3c2)c1C#N [Example 43, (3R)-3-[6-[2-cyano-3-[[ethyl(methyl)sulfamoyl]amino]-6-fluorophenoxy]-4-oxoquinazolin-3-yl]-8-[2-[4-[4-[[(3S)-2,6-dioxopiperidin-3-yl]amino]-2-fluorophenyl]piperidin-1-yl]acetyl]-1-oxa-8-azaspiro[4.5]decane] | 
4 | 0.015 µM |  | 9.75% | CCN(C)S(=O)(=O)Nc1ccc(F)c(Oc2ccc3ncn(-c4cnc(N5CCN(C(=O)CN6CCC(c7ccc(NC8CCC(=O)NC8=O)cc7F)CC6)CC5)nc4)c(=O)c3c2N)c1C#N (stereo in doubt) [Example 102, 5-amino-6-[2-cyano-3-[[ethyl(methyl)sulfamoyl]amino]-6-fluorophenoxy]-3-[2-[4-[2-[4-[4-[[(3S)-2,6-dioxopiperidin-3-yl]amino]-2-fluorophenyl]piperidin-1-yl]acetyl]piperazin-1-yl]pyrimidin-5-yl]-4-oxoquinazoline] | 
5 | 0.0303 µM | 10.1% |  | CCN(C)S(=O)(=O)Nc1ccc(F)c(Oc2ccc3ncn(-c4ccc(N5CCN(C(=O)CN6CCC(c7c(F)cc(NC8CCC(=O)NC8=O)cc7OC)CC6)CC5)nc4)c(=O)c3c2)c1C#N (centres unmarked) [Example 87, 6-[2-cyano-3-[[ethyl(methyl)sulfamoyl]amino]-6-fluorophenoxy]-3-[6-[4-[2-[4-[4-[(2,6-dioxopiperidin-3-yl)amino]-2-fluoro-6-methoxyphenyl]piperidin-1-yl]acetyl]piperazin-1-yl]pyridin-3-yl]-4-oxoquinazoline] | 

Second part, the compound before the results:

Row | SMILES | DC50 (A375.10 cells, 24 h) | Emax [1] | HiBit 24 h Emax [1] | Emax
6 | N#Cc1c(NS(=O)(=O)N2CCCCC2)ccc(F)c1Oc1ccc2ncn(-c3cnc(N4CCN(C(=O)CN5CCC(c6ccc(N[C@@H]7CCC(=O)NC7=O)cc6F)CC5)CC4)nc3)c(=O)c2c1 [Example 106, N-[2-cyano-3-[3-[2-[4-[2-[4-[4-[[(3R)-2,6-dioxopiperidin-3-yl]amino]-2-fluorophenyl]piperidin-1-yl]acetyl]piperazin-1-yl]pyrimidin-5-yl]-4-oxoquinazolin-6-yl]oxy-4-fluorophenyl]piperidine-1-sulfonamide] | 0.0436 µM |  |  | 16.7%
7 | CCN(C)S(=O)(=O)Nc1ccc(F)c(Oc2ccc3ncc(C4COC5(CCN(C(=O)CN6CCC(c7ccc(NC8CCC(=O)NC8=O)cc7F)CC6)CC5)C4)cc3c2)c1C#N (centres unmarked) [Example 218, 3-[6-[2-cyano-3-[[ethyl(methyl)sulfamoyl]amino]-6-fluorophenoxy]quinolin-3-yl]-8-[2-[4-[4-[(2,6-dioxopiperidin-3-yl)amino]-2-fluorophenyl]piperidin-1-yl]acetyl]-1-oxa-8-azaspiro[4.5]decane] | 0.0114 µM | 6.96% |  | 
8 | CCN(C)S(=O)(=O)Nc1ccc(F)c(Oc2ccc3ncn(CCC4CCN(C(=O)CN5CCC(c6ccc(C7CCC(=O)NC7=O)cc6F)CC5)CC4)c(=O)c3c2)c1C#N (centres unmarked) [Example 2, 6-[2-cyano-3-[[ethyl(methyl)sulfamoyl]amino]-6-fluorophenoxy]-3-[2-[1-[2-[4-[4-(2,6-dioxopiperidin-3-yl)-2-fluorophenyl]piperidin-1-yl]acetyl]piperidin-4-yl]ethyl]-4-oxoquinazoline] | 0.0486 µM | 13.5% |  | 
9 | CCN(C)S(=O)(=O)Nc1ccc(F)c(Oc2ccc3ncn(C4COC5(CCN(C(=O)CC6(O)CCN(c7cc8c(cc7F)c(N7CCC(=O)NC7=O)nn8C)CC6)CC5)C4)c(=O)c3c2N(C)C)c1C#N (centres unmarked) [Example 179, 3-[6-[2-cyano-3-[[ethyl(methyl)sulfamoyl]amino]-6-fluorophenoxy]-5-(dimethylamino)-4-oxoquinazolin-3-yl]-8-[2-[1-[3-(2,4-dioxo-1,3-diazinan-1-yl)-5-fluoro-1-methylindazol-6-yl]-4-hydroxypiperidin-4-yl]acetyl]-1-oxa-8-azaspiro[4.5]decane] | 0.0278 µM | 19.3% |  | 
10 | CN(C1CC1)S(=O)(=O)Nc1ccc(F)c(Oc2ccc3ncn([C@H]4COC5(CCN(C(=O)CC6(O)CCN(c7cc8c(cc7F)c(N7CCC(=O)NC7=O)nn8C)CC6)CC5)C4)c(=O)c3c2)c1C#N [Example 197, (3R)-3-[6-[2-cyano-3-[[cyclopropyl(methyl)sulfamoyl]amino]-6-fluorophenoxy]-4-oxoquinazolin-3-yl]-8-[2-[1-[3-(2,4-dioxo-1,3-diazinan-1-yl)-5-fluoro-1-methylindazol-6-yl]-4-hydroxypiperidin-4-yl]acetyl]-1-oxa-8-azaspiro[4.5]decane] | 0.0257 µM | 27.8% |  | 
11 | CCN(C)S(=O)(=O)Nc1ccc(F)c(Oc2ccc3ncn(C4CC5(CCN(C(=O)[C@H]6C[C@H](N7CC(c8ccc(NC9CCC(=O)NC9=O)cc8F)C7)C6)CC5)C4)c(=O)c3c2)c1C#N (some centres unmarked) [Example 39, 6-[2-cyano-3-[[ethyl(methyl)sulfamoyl]amino]-6-fluorophenoxy]-3-[7-[3-[3-[4-[(2,6-dioxopiperidin-3-yl)amino]-2-fluorophenyl]azetidin-1-yl]cyclobutanecarbonyl]-7-azaspiro[3.5]nonan-2-yl]-4-oxoquinazoline] | 0.0275 µM | 15.7% |  | 
12 | CCN(C)S(=O)(=O)Nc1ccc(F)c(Oc2ccc3ncn([C@H]4COC5(CCN(C(=O)CC6(O)CCN(c7cc8c(cc7F)c(N7CCC(=O)NC7=O)nn8C)CC6)CC5)C4)c(=O)c3c2F)c1C#N (single isomer, unassigned) [Example 174] | 0.0255 µM | 21.2% |  | 
13 | CCN(C)S(=O)(=O)Nc1ccc(F)c(Oc2ccc3ncc(N4CCC5(CCN(C(=O)CN6CCC(c7ccc(NC8CCC(=O)NC8=O)cc7F)CC6)CC5)C4)nc3c2)c1C#N (centres unmarked) [Example 219, 7-[2-cyano-3-[[ethyl(methyl)sulfamoyl]amino]-6-fluorophenoxy]-2-[8-[2-[4-[4-[(2,6-dioxopiperidin-3-yl)amino]-2-fluorophenyl]piperidin-1-yl]acetyl]-2,8-diazaspiro[4.5]decan-2-yl]quinoxaline] | 0.0217 µM | 13.9% |  | 
